Broadly, the IC50 is the concentration that inhibits the measured activity by half.

Each structure is given as a SMILES string.

Among the data in BindingDB's records for doi:10.1016/j.chembiol.2004.08.006 (University of Washington, 2004) are IC50 values, retold here.

Assay in all cases: Inhibition Assay
Assay [1] has as its target T1, Coagulation factor VIII (Homo sapiens, UniProt P00451). As to conditions: 37 °C. The source says:
Inhibition of factor VIII C2 domain.

The target of assay [2] is T1, Coagulation factor VIII. The conditions noted are these: pH 8. The procedure: Inhibition of factor VIII ELISA. The interaction between factor VIII and PS was measured by using an enzyme-linked immunoadsorbent assay (ELISA).
Assay [3] concerns the target T1, Coagulation factor VIII. As to conditions: pH 7.9. The source says:
Inhibition of factor X activation assay. A commercially available chromogenic assay that measures the rate of factor X activation to measure inhibiton of the cofactor function of factor VIII.

T1 sequence (P00451 20-759 limits assumed): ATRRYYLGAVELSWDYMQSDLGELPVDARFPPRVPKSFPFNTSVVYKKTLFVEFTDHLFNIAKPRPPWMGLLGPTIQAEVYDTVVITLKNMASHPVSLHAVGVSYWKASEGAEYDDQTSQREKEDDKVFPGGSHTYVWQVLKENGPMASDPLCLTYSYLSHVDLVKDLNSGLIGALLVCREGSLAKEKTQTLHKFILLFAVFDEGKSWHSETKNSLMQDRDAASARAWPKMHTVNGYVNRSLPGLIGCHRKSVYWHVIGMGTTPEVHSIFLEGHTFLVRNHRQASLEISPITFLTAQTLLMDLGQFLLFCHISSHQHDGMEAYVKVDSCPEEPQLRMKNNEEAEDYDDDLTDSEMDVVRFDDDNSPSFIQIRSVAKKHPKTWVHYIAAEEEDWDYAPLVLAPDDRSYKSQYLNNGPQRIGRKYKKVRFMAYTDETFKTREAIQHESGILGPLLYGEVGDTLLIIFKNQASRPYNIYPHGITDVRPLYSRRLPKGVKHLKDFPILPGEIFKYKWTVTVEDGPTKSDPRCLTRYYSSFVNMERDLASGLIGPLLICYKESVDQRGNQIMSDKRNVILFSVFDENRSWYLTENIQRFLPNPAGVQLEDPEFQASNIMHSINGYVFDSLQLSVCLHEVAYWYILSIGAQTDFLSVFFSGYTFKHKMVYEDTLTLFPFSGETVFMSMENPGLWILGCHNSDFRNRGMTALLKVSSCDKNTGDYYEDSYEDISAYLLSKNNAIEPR
T1 sequence (P00451 1668-2351 limits assumed): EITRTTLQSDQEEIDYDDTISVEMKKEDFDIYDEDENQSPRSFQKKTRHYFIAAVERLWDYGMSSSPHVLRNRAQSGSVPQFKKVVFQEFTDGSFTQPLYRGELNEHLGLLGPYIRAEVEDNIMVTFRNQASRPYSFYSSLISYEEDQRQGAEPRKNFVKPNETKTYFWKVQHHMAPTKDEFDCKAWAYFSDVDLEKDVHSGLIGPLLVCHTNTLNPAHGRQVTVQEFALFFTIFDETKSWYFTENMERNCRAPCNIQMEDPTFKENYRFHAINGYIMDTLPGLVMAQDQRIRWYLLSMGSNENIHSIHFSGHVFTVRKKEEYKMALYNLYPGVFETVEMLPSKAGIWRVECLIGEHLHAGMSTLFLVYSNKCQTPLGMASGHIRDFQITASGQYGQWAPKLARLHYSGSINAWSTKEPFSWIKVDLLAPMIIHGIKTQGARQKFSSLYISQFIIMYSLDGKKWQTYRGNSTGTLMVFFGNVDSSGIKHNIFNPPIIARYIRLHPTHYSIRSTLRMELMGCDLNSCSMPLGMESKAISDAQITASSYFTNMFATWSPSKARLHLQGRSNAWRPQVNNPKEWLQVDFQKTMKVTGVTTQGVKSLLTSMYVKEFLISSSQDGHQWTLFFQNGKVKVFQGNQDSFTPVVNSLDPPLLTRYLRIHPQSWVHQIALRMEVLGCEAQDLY

Take `CCOc1ccc(-c2cc(C)n3nc(C(N)=O)cc3n2)cc1`: half-maximal inhibition in assay [1] (IC50) was put at 26.8 µM. This lies in the double-digit micromolar range.
Still for that read-out and setting: then `CC(C=Cc1ccco1)=NCCCCNC(=O)C=Cc1ccco1` [5247489], with 56.1 µM; and `CCOC(=O)c1c(NC(=S)NC(=O)c2ccccc2)sc2c1CCC(C)C2` (stereo unspecified) [5523453], with 27.7 µM.
As for `O=C1/C(=C/c2ccc(Br)o2)SC(=S)N1c1cccc(C(F)(F)F)c1` [5737176], the IC50 came out at 6.66 µM in assay [1], 9.25 µM in assay [2] and 8.5 µM in assay [3].
For `O=C1/C(=C/c2ccc(I)o2)SC(=S)N1c1cccc(C(F)(F)F)c1` [5738875] the same measures were 5.65 µM, 6.83 µM and 5 µM.
For `O=C1/C(=C/c2ccc(Br)o2)SC(=S)N1c1ccc([N+](=O)[O-])cc1` [5739991] the same measures were 4.63 µM, 10.4 µM and 11.7 µM.
In turn, `N=C(NN=Cc1ccc(F)cc1)NN=Cc1ccc(F)cc1` [5924029] gave an IC50 in assay [1] of 24.5 µM.
As to `COc1cc(/C=C2/SC(=S)N(CC(=O)Nc3ccccn3)C2=O)cc(OC)c1OC` [6126765], it took 11.9 µM to reach half-maximal inhibition in assay [1] (IC50). Compared with the last molecule, the IC50 is about 2.1-fold lower.
Regarding `CCOc1ccc(Cl)cc1/C=C1/SC(=S)N(CC)C1=O` [6168356], in assay [1], half-maximal inhibition (IC50) required 49.6 µM. Against the preceding molecule, the IC50 is about 4.2-fold higher.
`O=C1NC(=S)NC(=O)C1=Cc1ccc(-c2cc(Cl)c([N+](=O)[O-])cc2Cl)o1` [6190013]: the figures for the IC50 in assay [1], in assay [2] and in assay [3] were 8.48 µM, 2.11 µM and 7.5 µM, respectively.
In assay [1], `COc1cc(C=Nn2c(O)csc2=S)ccc1OCCOc1ccc(C(C)(C)C)cc1` [6209549] displayed an IC50 of 12.4 µM. This lies in the double-digit micromolar range.
In the case of `O=C1/C(=C\c2ccc(Sc3ccc(Cl)cc3)o2)SC(=S)N1c1ccc([N+](=O)[O-])cc1` [6789536], the results for the IC50 in assay [1], in assay [2] and in assay [3] were 5.85 µM, 4.81 µM and 5.6 µM, respectively.
For `O=C1/C(=C/c2ccc(-c3ccc(Cl)cc3Cl)o2)SC(=S)N1c1cccc(C(F)(F)F)c1` [8047577] the same measures were 2.44 µM, 2.56 µM and 2.1 µM.
For `O=C1NC(=S)NC(=O)C1=Cc1ccc(-c2ccc(Cl)c(C(=O)O)c2)o1` [8048422] the same measures were 4.17 µM, 3.89 µM and 6.7 µM.
`O=C1NC(=S)NC(=O)C1=Cc1ccc(-c2cccc(C(=O)O)c2Cl)o1` [8056354]: the IC50 turned out to be 6.29 µM in assay [1], 6.51 µM in assay [2] and 6.8 µM in assay [3].
